Like-named read-outs stand apart in the source and are kept apart here.
Assay: Solubility in water at 25° C.
Assay type: physicochemical
Description: If it is not known, it can be determined by conventional methods. […] The amount or concentration of the active pharmaceutical ingredient in the solution is determined by analytical techniques known in the art.

[1] = sitagliptin salts, water, 25° C.

Molecule	Solubility of sitagliptin salts in water at 25° C. [1]	Solubility of sitagliptin salts in water at 25° C.
N[C@@H](CC(=O)N1CCn2c(nnc2C(F)(F)F)C1)Cc1cc(F)c(F)cc1F.O=C[C@H](O)[C@@H](O)[C@H](O)[C@H](O)C(=O)O [D-Glucuronate, sitagliptin D-glucuronate]	>500 mg/mL	–
sitagliptin glutarate	–	>500 mg/mL
N[C@@H](CC(=O)N1CCn2c(nnc2C(F)(F)F)C1)Cc1cc(F)c(F)cc1F.O=P(O)(O)O [Dihydrogen phosphate, sitagliptin dihydrogen phosphate]	100 to 120 mg/mL	–

Source: patent US20160367502A1, “FILM COATED PELLETS” (RATIOPHARM GMBH, priority 2012, published 2016)
